The assay deals with T1, soluble lytic transglycosylase Cj0843 (Campylobacter jejuni, UniProt Q0PA47).
T1 construct: gene Cj0843c; Cj0843-pET28b expressed in E. coli (not glycosylated); native P3_121 model contains residues 19–76 and 81–532
Put plainly: crystal structure ([…] Å, soaked crystals) and DSF Kd; also partial inhibition in PG turbidity assay. It is filed as binding.

T1 sequence (Q0PA47 entry or part of it): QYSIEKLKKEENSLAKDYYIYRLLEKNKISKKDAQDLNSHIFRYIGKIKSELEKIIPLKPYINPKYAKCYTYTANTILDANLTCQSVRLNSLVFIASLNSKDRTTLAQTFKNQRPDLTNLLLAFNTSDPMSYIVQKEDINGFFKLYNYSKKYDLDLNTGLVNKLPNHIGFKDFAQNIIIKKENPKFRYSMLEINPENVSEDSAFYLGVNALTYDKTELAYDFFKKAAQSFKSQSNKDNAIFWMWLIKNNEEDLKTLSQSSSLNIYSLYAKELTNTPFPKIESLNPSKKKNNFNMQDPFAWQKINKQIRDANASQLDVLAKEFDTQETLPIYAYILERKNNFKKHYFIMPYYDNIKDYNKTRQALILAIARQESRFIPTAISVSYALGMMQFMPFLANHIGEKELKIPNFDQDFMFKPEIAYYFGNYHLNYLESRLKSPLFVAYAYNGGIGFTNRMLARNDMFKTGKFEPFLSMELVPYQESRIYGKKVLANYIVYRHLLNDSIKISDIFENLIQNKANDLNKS

In general, Kd refers to the constant that tells how readily two partners part at equilibrium. Higher therefore signals lower affinity. `CC(=O)N[C@H]1[C@H](O[C@H]2C[C@@H](C(=O)NCCS(=O)(=O)O)N[C@@H]2CO)O[C@H](CO)[C@@H](OS(=O)(=O)O)[C@@H]1O` [bulgecin A] showed a dissociation constant (Kd) of 210 µM.
